How the values were obtained:
[1] = system: Mycosphaerella arachidis (Cercospora arachidicola); assay: Mycosphaerella arachidis (Cercospora arachidicola) / liquid culture (early leaf spot); type: cell-based; conditions: compared to untreated control
Description: (§1) Example B9: Mycosphaerella arachidis (Cercospora arachidicola)/Liquid Culture (Early Leaf Spot) Conidia of the fungus from cryogenic storage are directly mixed into nutrient broth (PDB potato dextrose broth). After placing a (DMSO) solution of test compound into a microtiter plate (96-well format), the nutrient broth containing the fungal spores is added. The test plates are incubated at 24° C. and the inhibition of growth is determined photometrically 4 to 5 days after application.

[2] = system: Mycosphaerella graminicola (Septoria tritici); assay: Mycosphaerella graminicola (Septoria tritici) / liquid culture (Septoria blotch); type: cell-based; conditions: Zymoseptoria tritici, compared to untreated control
Description: as §1, with “B15:” for “B9:”, “graminicola (Septoria tritici)/Liquid” for “arachidis (Cercospora arachidicola)/Liquid”, “(Septoria Blotch)” for “(Early Leaf Spot)”

[3] = system: Gibberella zeae (Fusarium graminearum); type: in vivo; conditions: 200 ppm; wheat spikelet preventative; compared to untreated control
[4] = system: Monographella nivalis (Microdochium nivale); assay: Monographella nivalis (Microdochium nivale) / liquid culture (foot rot cereals); type: cell-based; conditions: compared to untreated control
Description: as §1, with “B8: Monographella nivalis (Microdochium nivale)/Liquid” for “B9: Mycosphaerella arachidis (Cercospora arachidicola)/Liquid”, “(Foot Rot Cereals)” for “(Early Leaf Spot)”

Pyrenophora teres = Pyrenophora teres / barley / leaf disc preventative (net blotch); type: in vivo; conditions: foliar, compared to untreated control
Description: Example B12: Pyrenophora teres/Barley/Leaf Disc Preventative (Net Blotch) Barley leaf segments cv. Hasso are placed on agar in a multiwell plate (24-well format) and sprayed with the formulated test compound diluted in water. The leaf segments are inoculated with a spore suspension of the fungus 2 days after application. The inoculated leaf segments are incubated at 20° C. and 65% rh under a light regime of 12 h light/12 h darkness in a climate cabinet and the activity of a compound is assessed as disease control compared to untreated when an appropriate level of disease damage appears in untreated check leaf segments (5 to 7 days after application).

[5] = system: Glomerella lagenarium (Colletotrichum lagenarium); assay: Glomerella lagenarium (Colletotrichum lagenarium) / liquid culture (anthracnose); type: cell-based; conditions: Colletotrichum orbiculare, compared to untreated control
Description: as §1, with “B3: Glomerella lagenarium (Colletotrichum lagenarium)/Liquid” for “B9: Mycosphaerella arachidis (Cercospora arachidicola)/Liquid”, “(Anthracnose)” for “(Early Leaf Spot)”, “measured” for “determined”, “photometrically 3 to” for “photometrically”, “4” for “4 to 5”

Alternaria solani = Alternaria solani / tomato / leaf disc (early blight); type: in vivo; conditions: foliar, compared to untreated control
Description: Example B1: Alternaria solani/Tomato/Leaf Disc (Early Blight) Tomato leaf disks cv. Baby are placed on agar in multiwell plates (24-well format) and sprayed with the formulated test compound diluted in water. The leaf disks are inoculated with a spore suspension of the fungus 2 days after application. The inoculated leaf disks are incubated at 23° C./21° C.

Pythium ultimum = Pythium ultimum / liquid culture (seedling damping off); type: cell-based; conditions: 20 ppm, compared to untreated control
Description: Example B13: Pythium ultimum/Liquid Culture (Seedling Damping Off) Mycelia fragments and oospores of a newly grown liquid culture of the fungus are directly mixed into nutrient broth (PDB potato dextrose broth). After placing a (DMSO) solution of test compound into a microtiter plate (96-well format), the nutrient broth containing the fungal mycelia/spore mixture is added. The test plates are incubated at 24° C. and the inhibition of growth is determined photometrically 2 to 3 days after application.

SMILES: Cc1c([C@H]2CN(C(=O)CCCCCC(F)F)[C@@H](C)c3ccccc32)cnn1C [Compound P-46, 1-[(1S,4S)-4-(1,5-dimethylpyrazol-4-yl)-1-methyl-3,4-dihydro-1H-isoquinolin-2-yl]-7,7-difluoro-heptan-1-one]
- inhibition of growth at 20 ppm [1]: ≥ 80%
- inhibition of growth at 20 ppm [2]: ≥ 80%
- control of Gibberella zeae [3]: at least 80%
- inhibition of growth at 20 ppm [4]: ≥ 80%
- pest or weed control at 200 ppm (Pyrenophora teres): ≥ 80%
- inhibition of growth at 20 ppm [5]: ≥ 80%
- pest or weed control at 200 ppm (Alternaria solani): ≥ 80%

SMILES: Cc1c(C2CN(C(=O)CCc3ccc(F)cc3F)Cc3ccccc32)cnn1C (stereo not drawn) [Compound P-6, 3-(2,4-difluorophenyl)-1-[4-(1,5-dimethylpyrazol-4-yl)-3,4-dihydro-1H-isoquinolin-2-yl]propan-1-one]
- inhibition of growth at 20 ppm [1]: ≥ 80%
- inhibition of growth at 20 ppm [2]: ≥ 80%
- control of Pythium ultimum (Pythium ultimum): at least 80%
- pest or weed control at 200 ppm (Pyrenophora teres): ≥ 80%
- pest or weed control at 200 ppm (Alternaria solani): ≥ 80%

— US20260193226A1, “MICROBIOCIDAL TETRAHYDROISOQUINOLINE DERIVATIVES” (SYNGENTA CROP PROTECTION AG, priority 2022, published 2026)
